{
  "source": "patent US9995734B2",
  "about": "“Human T cell line assay for evaluating the immunologic identity of glatiramer acetate preparations” (Mylan Inc., priority 2013, dated 2018)",
  "tested_on": "Donor 3 GMA T-Cell Lines",
  "experiment": "ATP proliferation assay (CellTiter Glo), Donor 3 GMA T-cell lines, incl. reactivity to non-canonical GA peptides",
  "format": "cell-based, human",
  "data": [
    {"substance": "poly (Glu-Ala-Tyr; 6:3:1) [GAT 631]", "values": [
      {"measurement": "Proliferation (luminescent ATP assay), Mean", "setting": "T-cell line 165-B5G, 10 μg/mL antigen, Day 55 of culturing, No Antigen Value 846", "value": 1645, "unit": "RLU"},
      {"measurement": "Proliferation (luminescent ATP assay), Mean", "setting": "T-cell line 165-B5G, 10 μg/mL antigen, Day 81 of culturing, No Antigen Value 2432", "value": 4997, "unit": "RLU"},
      {"measurement": "Proliferation (luminescent ATP assay), Mean", "setting": "T-cell line 165-B5G, 30 μg/mL antigen, Day 81 of culturing, No Antigen Value 2432", "value": 3637, "unit": "RLU"},
      {"measurement": "Proliferation (luminescent ATP assay), Mean", "setting": "T-cell line 165-C5G, 1.25 μg/mL antigen, autologous B-LCL", "value": 435, "unit": "RLU"},
      {"measurement": "Proliferation (luminescent ATP assay), Mean", "setting": "T-cell line 165-C5G, 2.5 μg/mL antigen, autologous B-LCL", "value": 465, "unit": "RLU"},
      {"measurement": "Proliferation (luminescent ATP assay), Mean", "setting": "T-cell line 165-C5G, 5 μg/mL antigen, autologous B-LCL", "value": 504, "unit": "RLU"},
      {"measurement": "Proliferation (luminescent ATP assay), Mean", "setting": "T-cell line 165-C5G, 10 μg/mL antigen, autologous B-LCL", "value": 423, "unit": "RLU"},
      {"measurement": "Proliferation (luminescent ATP assay), Mean", "setting": "T-cell line 165-E7G, 1 μg/mL antigen, Day 81 of culturing, No Antigen Value 2145", "value": 4043, "unit": "RLU"},
      {"measurement": "Proliferation (luminescent ATP assay), Mean", "setting": "T-cell line 165-E7G, 1.25 μg/mL antigen, autologous B-LCL, Day 55", "value": 2629, "unit": "RLU"},
      {"measurement": "Proliferation (luminescent ATP assay), Mean", "setting": "T-cell line 165-E7G, 2.5 μg/mL antigen, autologous B-LCL, Day 55", "value": 2827, "unit": "RLU"},
      {"measurement": "Proliferation (luminescent ATP assay), Mean", "setting": "T-cell line 165-E7G, 3 μg/mL antigen, Day 81 of culturing, No Antigen Value 2145", "value": 6457, "unit": "RLU"},
      {"measurement": "Proliferation (luminescent ATP assay), Mean", "setting": "T-cell line 165-E7G, 5 μg/mL antigen, autologous B-LCL, Day 55", "value": 2950, "unit": "RLU"},
      {"measurement": "Proliferation (luminescent ATP assay), Mean", "setting": "T-cell line 165-E7G, 10 μg/mL antigen, Day 81 of culturing, No Antigen Value 2145", "value": 5499, "unit": "RLU"},
      {"measurement": "Proliferation (luminescent ATP assay), Mean", "setting": "T-cell line 165-E7G, 10 μg/mL antigen, autologous B-LCL, Day 55", "value": 3877, "unit": "RLU"},
      {"measurement": "Proliferation (luminescent ATP assay), Mean", "setting": "T-cell line 165-E7G, 30 μg/mL antigen, Day 81 of culturing, No Antigen Value 2145", "value": 4178, "unit": "RLU"},
      {"measurement": "Proliferation (luminescent ATP assay), Mean", "setting": "T-cell line 165-E9G, 1 μg/mL antigen, Day 50 of culturing, No Antigen Value 1742", "value": 1482, "unit": "RLU"},
      {"measurement": "Proliferation (luminescent ATP assay), Mean", "setting": "T-cell line 165-E9G, 1.25 μg/mL antigen, autologous B-LCL", "value": 122, "unit": "RLU"},
      {"measurement": "Proliferation (luminescent ATP assay), Mean", "setting": "T-cell line 165-E9G, 2.5 μg/mL antigen, autologous B-LCL", "value": 175, "unit": "RLU"},
      {"measurement": "Proliferation (luminescent ATP assay), Mean", "setting": "T-cell line 165-E9G, 3 μg/mL antigen, Day 50 of culturing, No Antigen Value 1742", "value": 1593, "unit": "RLU"},
      {"measurement": "Proliferation (luminescent ATP assay), Mean", "setting": "T-cell line 165-E9G, 5 μg/mL antigen, autologous B-LCL", "value": 207, "unit": "RLU"},
      {"measurement": "Proliferation (luminescent ATP assay), Mean", "setting": "T-cell line 165-E9G, 10 μg/mL antigen, autologous B-LCL", "value": 179, "unit": "RLU"},
      {"measurement": "Proliferation (luminescent ATP assay), Mean", "setting": "T-cell line 165-E9G, 30 μg/mL antigen, Day 50 of culturing, No Antigen Value 1742", "value": 1382, "unit": "RLU"},
      {"measurement": "Proliferation (luminescent ATP assay), Mean", "setting": "T-cell line 165-E9G, 10 μpg/mL antigen, Day 50 of culturing, No Antigen Value 1742", "value": 1454, "unit": "RLU"},
      {"measurement": "Proliferation (luminescent ATP assay), Mean", "setting": "T-cell line 165-F5G, 1.25 μg/mL antigen, autologous B-LCL", "value": 118, "unit": "RLU"},
      {"measurement": "Proliferation (luminescent ATP assay), Mean", "setting": "T-cell line 165-F5G, 2.5 μg/mL antigen, autologous B-LCL", "value": 160, "unit": "RLU"},
      {"measurement": "Proliferation (luminescent ATP assay), Mean", "setting": "T-cell line 165-F5G, 5 μg/mL antigen, autologous B-LCL", "value": 106, "unit": "RLU"},
      {"measurement": "Proliferation (luminescent ATP assay), Mean", "setting": "T-cell line 165-F5G, 10 μg/mL antigen, autologous B-LCL", "value": 130, "unit": "RLU"},
      {"measurement": "Proliferation (luminescent ATP assay), Mean", "setting": "T-cell line 165-F10G, 1 μg/mL antigen, Day 50 of culturing, No Antigen Value 3752", "value": 3755, "unit": "RLU"},
      {"measurement": "Proliferation (luminescent ATP assay), Mean", "setting": "T-cell line 165-F10G, 1.25 μg/mL antigen, autologous B-LCL", "value": 948, "unit": "RLU"},
      {"measurement": "Proliferation (luminescent ATP assay), Mean", "setting": "T-cell line 165-F10G, 2.5 μg/mL antigen, autologous B-LCL", "value": 1080, "unit": "RLU"},
      {"measurement": "Proliferation (luminescent ATP assay), Mean", "setting": "T-cell line 165-F10G, 3 μg/mL antigen, Day 50 of culturing, No Antigen Value 3752", "value": 3543, "unit": "RLU"},
      {"measurement": "Proliferation (luminescent ATP assay), Mean", "setting": "T-cell line 165-F10G, 5 μg/mL antigen, autologous B-LCL", "value": 1024, "unit": "RLU"},
      {"measurement": "Proliferation (luminescent ATP assay), Mean", "setting": "T-cell line 165-F10G, 10 μg/mL antigen, Day 50 of culturing, No Antigen Value 3752", "value": 3702, "unit": "RLU"},
      {"measurement": "Proliferation (luminescent ATP assay), Mean", "setting": "T-cell line 165-F10G, 10 μg/mL antigen, autologous B-LCL", "value": 944, "unit": "RLU"},
      {"measurement": "Proliferation (luminescent ATP assay), Mean", "setting": "T-cell line 165-F10G, 30 μg/mL antigen, Day 50 of culturing, No Antigen Value 3752", "value": 3794, "unit": "RLU"},
      {"measurement": "Proliferation (luminescent ATP assay), Mean", "setting": "T-cell line 165-H11G, 1 μg/mL antigen, Day 50 of culturing, No Antigen Value 1485", "value": 2413, "unit": "RLU"},
      {"measurement": "Proliferation (luminescent ATP assay), Mean", "setting": "T-cell line 165-H11G, 1.25 μg/mL antigen, autologous B-LCL", "value": 43, "unit": "RLU"},
      {"measurement": "Proliferation (luminescent ATP assay), Mean", "setting": "T-cell line 165-H11G, 2.5 μg/mL antigen, autologous B-LCL", "value": 290, "unit": "RLU"},
      {"measurement": "Proliferation (luminescent ATP assay), Mean", "setting": "T-cell line 165-H11G, 3 μg/mL antigen, Day 50 of culturing, No Antigen Value 1485", "value": 2969, "unit": "RLU"},
      {"measurement": "Proliferation (luminescent ATP assay), Mean", "setting": "T-cell line 165-H11G, 5 μg/mL antigen, autologous B-LCL", "value": 297, "unit": "RLU"},
      {"measurement": "Proliferation (luminescent ATP assay), Mean", "setting": "T-cell line 165-H11G, 10 μg/mL antigen, Day 50 of culturing, No Antigen Value 1485", "value": 2995, "unit": "RLU"},
      {"measurement": "Proliferation (luminescent ATP assay), Mean", "setting": "T-cell line 165-H11G, 10 μg/mL antigen, autologous B-LCL", "value": 305, "unit": "RLU"},
      {"measurement": "Proliferation (luminescent ATP assay), Mean", "setting": "T-cell line 165-H11G, 30 μg/mL antigen, Day 50 of culturing, No Antigen Value 1485", "value": 3115, "unit": "RLU"}
    ]}
  ]
}
